Five compounds from patent publication US20100239523A1 (priority 2007, published 2010) can be followed below.

One test deals with T1, human TLR4 (Homo sapiens, UniProt O00206).
T1 construct: host or cells: HEK 293
Type of test: cell-based.

Test [1] relates to morphine analgesia in rats. The test is described as follows: Potentiation of intrathecal morphine analgesia, Hargreaves test. Type of test: in vivo, rat. The following applies: about 20 μg co-administered with morphine intrathecally, FIG. 6B.

T1 sequence (O00206 24-839): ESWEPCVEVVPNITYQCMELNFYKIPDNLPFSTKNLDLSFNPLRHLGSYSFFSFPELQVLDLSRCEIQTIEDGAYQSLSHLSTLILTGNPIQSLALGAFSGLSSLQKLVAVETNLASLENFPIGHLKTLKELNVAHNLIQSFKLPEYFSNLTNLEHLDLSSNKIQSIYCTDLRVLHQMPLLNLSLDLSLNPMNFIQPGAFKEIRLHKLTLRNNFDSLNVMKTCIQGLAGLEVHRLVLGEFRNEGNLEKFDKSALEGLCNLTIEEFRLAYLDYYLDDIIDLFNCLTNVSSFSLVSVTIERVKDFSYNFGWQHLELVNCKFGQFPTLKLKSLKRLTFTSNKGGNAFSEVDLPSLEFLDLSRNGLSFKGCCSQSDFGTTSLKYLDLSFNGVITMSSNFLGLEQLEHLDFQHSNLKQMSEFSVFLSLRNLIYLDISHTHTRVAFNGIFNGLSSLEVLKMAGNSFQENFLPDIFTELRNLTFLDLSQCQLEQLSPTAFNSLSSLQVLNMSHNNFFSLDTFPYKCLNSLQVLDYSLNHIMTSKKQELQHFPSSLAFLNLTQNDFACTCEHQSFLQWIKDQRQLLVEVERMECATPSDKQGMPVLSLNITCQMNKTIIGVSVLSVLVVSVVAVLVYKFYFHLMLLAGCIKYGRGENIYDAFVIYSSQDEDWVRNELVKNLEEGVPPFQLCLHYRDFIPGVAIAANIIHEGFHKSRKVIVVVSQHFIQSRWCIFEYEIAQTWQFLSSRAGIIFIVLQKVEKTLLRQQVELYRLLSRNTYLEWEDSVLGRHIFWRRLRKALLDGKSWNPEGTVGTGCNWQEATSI
T1 sequence (Q9Y6Y9 17-160 partner limits assumed): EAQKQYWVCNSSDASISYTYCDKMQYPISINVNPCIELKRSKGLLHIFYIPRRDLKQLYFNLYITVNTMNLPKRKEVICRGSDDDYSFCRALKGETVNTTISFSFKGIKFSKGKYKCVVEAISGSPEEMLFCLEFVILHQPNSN

For the compound `CN1CC[C@]23c4c5ccc(O)c4O[C@H]2[C@@H](O)C=C[C@H]3[C@H]1C5` [morphine], at human TLR4, the TLR4 agonism result is “TLR4 agonists”.

In the case of `COc1ccc2c3c1O[C@H]1C(=O)CC[C@@]4(O)[C@@H](C2)N(C)CC[C@]314` [oxycodone], the TLR4 agonism result on human TLR4 is reported as “TLR4 agonists”.

For `CCC(=O)C(CC(C)N(C)C)(c1ccccc1)c1ccccc1` (centres unmarked) [methadone], on human TLR4, the TLR4 agonism result is given as “TLR4 agonists”.

For `O=c1c(O)c(-c2ccc(O)c(O)c2)oc2cc(O)cc(O)c12` [quercetin], the “potentiation of morphine analgesia” value in test [1] is given as “significant potentiation”.

Consider `CCOC(=O)C1(c2ccccc2)CCN(C)CC1` [pethadine/meperidine], for which the TLR4 agonism entry at human TLR4 is given as “TLR4 agonists”.
